Source: patent publication US20250145598A1, “ACID CERAMIDASE INHIBITORS AND USES THEREOF” (The Regents of the University of California, priority 2021, published 2025)

biological target: T1, Acid ceramidase (Homo sapiens, UniProt Q13510); assay: Acid ceramidase assay (AC in vitro IC50); type: biochemical; conditions: Acid ceramidase assay data of example compounds
T1 sequence (Q13510 22-395): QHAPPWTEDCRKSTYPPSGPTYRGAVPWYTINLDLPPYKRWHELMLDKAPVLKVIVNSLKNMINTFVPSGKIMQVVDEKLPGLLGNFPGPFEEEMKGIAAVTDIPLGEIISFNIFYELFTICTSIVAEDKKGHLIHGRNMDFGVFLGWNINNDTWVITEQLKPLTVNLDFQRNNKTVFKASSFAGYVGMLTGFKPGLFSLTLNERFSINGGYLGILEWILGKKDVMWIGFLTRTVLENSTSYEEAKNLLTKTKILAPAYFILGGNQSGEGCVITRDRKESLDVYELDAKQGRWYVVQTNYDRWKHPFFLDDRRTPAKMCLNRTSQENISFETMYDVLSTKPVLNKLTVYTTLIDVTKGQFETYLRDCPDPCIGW

IC50, < 0.3 µM:
CS(=O)(=O)c1ccc(COc2ccc(-c3cn(C(=O)NCC4CCN(c5cccc(C(F)(F)F)c5)C4)cn3)cc2)cc1 (centres unmarked) [AC2020601-0498, 4-(4-((4-(methylsulfonyl)benzyl)oxy)phenyl)-N-((1-(3-(trifluoromethyl)phenyl)pyrrolidin-3-yl)methyl)-1H-imidazole-1-carboxamide]
Cc1ncc(N2CCC(CNC(=O)n3cnc(-c4ccc(OCc5ccc(S(C)(=O)=O)cc5)cc4)c3)C2)s1 (centres unmarked) [AC2020601-0499, 4-(4-((4-(methylsulfonyl)benzyl)oxy)phenyl)-N-((1-(2-methylthiazol-5-yl)pyrrolidin-3-yl)methyl)-1H-imidazole-1-carboxamide]
CS(=O)(=O)c1ccc(C(=O)Oc2ccc(-c3cn(C(=O)NCC4CCN(c5ccccc5)C4)cn3)cc2)cc1 (centres unmarked) [AC2020601-0501, 4-(1-((1-phenylpyrrolidin-3-yl)methylcarbamoyl)-1H-imidazol-4-yl)phenyl 4-(methylsulfonyl)benzoate]
CS(=O)(=O)c1ccc(COc2ccc(-c3cn(C(=O)NCC4CCN(c5ccc6c(c5)CCO6)C4)cn3)cc2)cc1 (centres unmarked) [AC2020601-0506, N-((1-(2,3-dihydrobenzofuran-5-yl)pyrrolidin-3-yl)methyl)-4-(4-(4-(methylsulfonyl)benzyloxy)phenyl)-1H-imidazole-1-carboxamide]
N#CCS(=O)(=O)c1ccc(COc2ccc(-c3cn(C(=O)NCC4CCN(c5ccccc5)C4)cn3)cc2)cc1 (centres unmarked) [AC2020601-0507, 4-(4-(4-(cyanomethylsulfonyl)benzyloxy)phenyl)-N-((1-phenylpyrrolidin-3-yl)methyl)-1H-imidazole-1-carboxamide]
